{"source": "BindingDB's records for doi:10.1016/S0960-894X(01)80724-1", "about": "(1993)", "target": "Squalene synthase (Candida albicans)", "test": "Inhibition of Candida albicans squalene synthase(SQS)"}
{"compound": "C=C(CC[C@]12O[C@H](C(=O)O)[C@@](O)(C(=O)O)[C@](C(=O)O)(O1)[C@H](OC(=O)CCCCCCc1ccccc1)[C@H]2O)[C@@H](OC(C)=O)[C@H](C)Cc1ccccc1", "note": "[(1S,3S,4S,5R,6R,7R)-1-((4S,5R)-4-Acetoxy-5-methyl-3-methylene-6-phenyl-hexyl)-4,7-dihydroxy-6-(7-phenyl-heptanoyloxy)-2,8-dioxa-bicyclo[3.2.1]octane-3,4,5-tricarboxylic acid]", "values": [{"measurement": "IC50", "result": 7, "unit": "nM"}]}
{"compound": "C=C(CC[C@]12O[C@H](C(=O)O)[C@@](O)(C(=O)O)[C@](C(=O)O)(O1)[C@H](O)[C@H]2OC(=O)CCCCCCC)[C@@H](OC(C)=O)[C@H](C)Cc1ccccc1", "note": "[(1S,3S,4S,5R,6R,7R)-1-((4S,5R)-4-Acetoxy-5-methyl-3-methylene-6-phenyl-hexyl)-4,6-dihydroxy-7-octanoyloxy-2,8-dioxa-bicyclo[3.2.1]octane-3,4,5-tricarboxylic acid]", "values": [{"measurement": "IC50", "result": "> 200", "unit": "nM"}]}
{"compound": "C=C(CC[C@]12O[C@H](C(=O)O)[C@@](O)(C(=O)O)[C@](C(=O)O)(O1)[C@H](O)[C@H]2OC(=O)OC)[C@@H](OC(C)=O)[C@H](C)Cc1ccccc1", "note": "[(1S,3S,4S,5R,6R,7R)-1-((4S,5R)-4-Acetoxy-5-methyl-3-methylene-6-phenyl-hexyl)-4,6-dihydroxy-7-methoxycarbonyloxy-2,8-dioxa-bicyclo[3.2.1]octane-3,4,5-tricarboxylic acid]", "values": [{"measurement": "IC50", "result": "> 200", "unit": "nM"}]}
{"compound": "C=C(CC[C@]12O[C@H](C(=O)O)[C@@](O)(C(=O)O)[C@](C(=O)O)(O1)[C@H](OC(=O)CCCCCCC)[C@H]2OC(=O)CCCCCCC)[C@@H](OC(C)=O)[C@H](C)Cc1ccccc1", "note": "[(1S,3S,4S,5R,6R,7R)-1-((4S,5R)-4-Acetoxy-5-methyl-3-methylene-6-phenyl-hexyl)-4-hydroxy-6,7-bis-octanoyloxy-2,8-dioxa-bicyclo[3.2.1]octane-3,4,5-tricarboxylic acid]", "values": [{"measurement": "IC50", "result": "> 200", "unit": "nM"}]}
{"compound": "C=C(CC[C@]12O[C@H](C(=O)O)[C@@](O)(C(=O)O)[C@](C(=O)O)(O1)[C@H](OC(=O)OCCCCCCCCC)[C@H]2O)[C@@H](OC(C)=O)[C@H](C)Cc1ccccc1", "note": "[(1S,3S,4S,5R,6R,7R)-1-((4S,5R)-4-Acetoxy-5-methyl-3-methylene-6-phenyl-hexyl)-4,7-dihydroxy-6-nonyloxycarbonyloxy-2,8-dioxa-bicyclo[3.2.1]octane-3,4,5-tricarboxylic acid]", "values": [{"measurement": "IC50", "result": 2, "unit": "nM"}]}
{"compound": "C=C(CC[C@]12O[C@H](C(=O)O)[C@@](O)(C(=O)O)[C@](C(=O)O)(O1)[C@H](O)[C@H]2OC(C)=O)[C@@H](OC(C)=O)[C@H](C)Cc1ccccc1", "note": "[(1S,3S,4S,5R,6R,7R)-7-Acetoxy-1-((4S,5R)-4-acetoxy-5-methyl-3-methylene-6-phenyl-hexyl)-4,6-dihydroxy-2,8-dioxa-bicyclo[3.2.1]octane-3,4,5-tricarboxylic acid]", "values": [{"measurement": "IC50", "result": "> 200", "unit": "nM"}]}
{"compound": "C=C(CC[C@]12O[C@H](C(=O)O)[C@@](O)(C(=O)O)[C@](C(=O)O)(O1)[C@H](OC(=O)OCCCC)[C@H]2O)[C@@H](OC(C)=O)[C@H](C)Cc1ccccc1", "note": "[(1S,3S,4S,5R,6R,7R)-1-((4S,5R)-4-Acetoxy-5-methyl-3-methylene-6-phenyl-hexyl)-6-butoxycarbonyloxy-4,7-dihydroxy-2,8-dioxa-bicyclo[3.2.1]octane-3,4,5-tricarboxylic acid]", "values": [{"measurement": "IC50", "result": 8, "unit": "nM"}]}
{"compound": "C=C(CC[C@]12O[C@H](C(=O)O)[C@@](O)(C(=O)O)[C@](C(=O)O)(O1)[C@H](OC(=O)/C=C/c1ccccc1)[C@H]2O)[C@@H](OC(C)=O)[C@H](C)Cc1ccccc1", "note": "[(1S,3S,4S,5R,6R,7R)-1-((4S,5R)-4-Acetoxy-5-methyl-3-methylene-6-phenyl-hexyl)-4,7-dihydroxy-6-[(E)-(3-phenyl-acryloyl)oxy]-2,8-dioxa-bicyclo[3.2.1]octane-3,4,5-tricarboxylic acid]", "values": [{"measurement": "IC50", "result": 10, "unit": "nM"}]}
